Experimental data as given in US4513001A, “β-Adrenergic 1-[1-benzimidazolyl]-N-[2-(4-hydroxy-3-methoxy-phenyl)-2-hydroxy-ethyl]- 3-amino butane and salts and hydrates thereof” (priority 1982, dated 1985).
Read-outs that look alike come from different tables or passages of the source.

What was measured:
[1] = Acute toxicity in the mouse, intravenous; details: in vivo
Source text: These two compounds were the subject of an acute toxicity study in the mouse.
The two compounds had similar toxicity and the pharmacological study was able, indifferently, to be carried out with one or the other, the results being, in the two cases, expressed by weight of base per kg of body weight for the in vivo tests and in molar concentration for the in vitro tests.

uterine horn = assay: Uterus relaxing activity in vivo (ocytocine-induced contractions); details: rat, i.v.; compound A 16.8 μg/kg vs salbutamol 24.9 μg/kg
Protocol: The test was carried out also in the rat.
The aminal was anesthesied by ethyl carbamate.
The contractions caused in an exposed uterine horn immersed in a nutrient bath were recorded (bath: RINGER-LOCKE modified by GADDUM and VOGT). These contractions were induced by the intravenous injection of ocytocine, at the dose of 0.1 IU per kg.
After a control recording of the effects of the latter, the compound A or the Salbutamol were administered intravenously and the further ocytocine injection was carried out; its effect was compared with that of the control reaction.

heart rate [2] = assay: β-stimulant specificity: heart rate of the anesthetised dog, antagonism of compound A tachycardia by acebutolol; assay type: in vivo
Source text: The results below are the averages of the values obtained in 3 dogs.

heart rate [3] = assay: Heart rate of the un-anesthetised dog, oral; assay type: in vivo, Beagle dog
[4] = T0 + 1 min, perfusion compound A 4.2 μg/kg/min, T0: 157
[5] = T1 + 4 h 1 min, second perfusion compound A after acebutolol
[6] = T1 + 4 h 2 min, second perfusion compound A after acebutolol
[7] = T1 + 4 h 4 min, second perfusion compound A after acebutolol
[8] = T1 + 4 h 6 min, second perfusion compound A after acebutolol

SMILES: COc1cc(C(O)CNC(C)CCn2cnc3ccccc32)ccc1O (stereo not drawn) [Compound A, 1-[1-benzimidazolyl]-N-[2-(4-hydroxy-3-methoxy-phenyl)2-hydroxy-ethyl]3-amino butane basic sulphate, dihydrate]
- LD50 ([1]; as base, confidence limits printed, read-out: LD50 expressed as base): 96 mg/kg
- LD50 ([1]; by weight of product, confidence limits p=0.05 printed, read-out: LD50): 114 mg/kg
- Inhibiting activity on ocytocine-induced uterine contractions (comparison with Salbutamol) (uterine horn): inhibiting activity comparable with that of salbutamol
- Heart rate (heart rate [2]; [4]): 180 beats/min
- Heart rate variation (heart rate [2]; [4]): +23
- Heart rate variation (heart rate [2]; T0 + 2 min, perfusion compound A): +40
- Heart rate (heart rate [2]; T0 + 2 min, perfusion compound A, T0: 157): 197 beats/min
- Heart rate variation (heart rate [2]; T0 + 4 min, perfusion compound A): +45
- Heart rate (heart rate [2]; T0 + 4 min, perfusion compound A, T0: 157): 202 beats/min
- Heart rate variation (heart rate [2]; T0 + 6 min = T1, perfusion compound A): +48
- Heart rate (heart rate [2]; T0 + 6 min = T1, perfusion compound A, T0: 157): 205 beats/min
- Heart rate (heart rate [2]; [5]): 146 beats/min
- Heart rate variation (heart rate [2]; [5]): -11
- Heart rate (heart rate [2]; [6]): 155 beats/min
- Heart rate variation (heart rate [2]; [6]): -2
- Heart rate (heart rate [2]; [7]): 160 beats/min
- Heart rate variation (heart rate [2]; [7]): +3
- Heart rate (heart rate [2]; [8]): 160 beats/min
- Heart rate variation (heart rate [2]; [8]): +3

SMILES: CC(C)(C)NCC(O)c1ccc(O)c(CO)c1 (stereo not drawn) [Salbutamol, reference compound]
- Heart rate, average (heart rate [3]; 25 μg base/kg, 15 min, time 0: 92, 12 dogs): 142
- Heart rate, average (heart rate [3]; 25 μg base/kg, 30 min, time 0: 92): 165
- Heart rate, average (heart rate [3]; 25 μg base/kg, 1 h, time 0: 92): 170
- Heart rate, average (heart rate [3]; 25 μg base/kg, 2 h, time 0: 92): 156
- Heart rate, average (heart rate [3]; 25 μg base/kg, 3 h, time 0: 92): 137
- Heart rate, average (heart rate [3]; 25 μg base/kg, 4 h, time 0: 92): 130
- Heart rate, average (heart rate [3]; 25 μg base/kg, 5 h, time 0: 92): 120
- Heart rate, average (heart rate [3]; 83 μg base/kg, 15 min, time 0: 90, 12 dogs): 163
- Heart rate, average (heart rate [3]; 83 μg base/kg, 30 min, time 0: 90): 194
- Heart rate, average (heart rate [3]; 83 μg base/kg, 1 h, time 0: 90): 197
- Heart rate, average (heart rate [3]; 83 μg base/kg, 2 h, time 0: 90): 195
- Heart rate, average (heart rate [3]; 83 μg base/kg, 3 h, time 0: 90): 172
- Heart rate, average (heart rate [3]; 83 μg base/kg, 4 h, time 0: 90): 150
- Heart rate, average (heart rate [3]; 83 μg base/kg, 5 h, time 0: 90): 148
- Heart rate, average (heart rate [3]; 83 μg base/kg, 6 h, time 0: 90): 141
- Heart rate, average (heart rate [3]; 83 μg base/kg, 7 h, time 0: 90): 138
- Tachycardiac activity (comparison with Salbutamol) (heart rate [3]; un-anesthetised dog, in words): more active than compound B: the effect of the low dose of Salbutamol is equal to that of the high dose of compound B
